Experimental data: US12421280B2, “Insulin like growth factor binding protein bioactive peptide fragments” (Northwestern University, priority 2019, dated 2025)
Several values for one entry are separate records, joined by “and”; a condition that tells them apart may be missing. Equal entries are not always repeated.

What was measured:
Type in all cases: in vivo, rat
male SD rats = assay: Porsolt forced swim test; conditions: 1 hr post-dosing; for antidepressant-like effect in the Porsolt test as measured by floating time, compared with ketamine: 1 μg/kg i.v., FIG. 1A; for antidepressant-like effect in the Porsolt test (floating time), compared with IGFBP2: dose not specified, FIG. 2 legend; for antidepressant-like effect in the Porsolt test as measured by floating time, compared with IGFBP2: FIG. 2
Method: Adult male (2-3 month old) Sprague-Dawley (SD) rats were purchased from Harlan (USA) for the Porsolt Forced Swim Test. Rats were housed in Lucite cages with aspen wood chip bedding, maintained on a 12:12 light:dark cycle (lights on at 5 AM), and given ad libitum access to Purina lab chow (USA) and tap water throughout the study. All experiments were approved by the Sai Life Sciences (India) Animal Care and Use Committees.
Porsolt forced swim testing was conducted as described in (Burgdorf et al., Neuropsychopharmacology, (2013), 38(5):729-742). Rats were dosed with IGFBP1-7 (1 microgram/kg i.v.; peprotech, USA) (3 mg/kg, i.v.), ketamine ([…] i.v.; Sigma, USA) or 0.9% sterile saline vehicle (1 ml/kg, i.v.). Injections were made in the lateral tail vein and rats were tested 1 hr post-dosing. Animals were placed in a 46 cm tall×20 cm in diameter clear glass tube filled to 30 cm with tap water (23±1° C.) for 15 min on the first day (habituation) and 5 min on the subsequent test day. Water was changed after every other animal. Animals were videotaped, and tapes were scored offline by a blind experimenter with high inter-rater reliability (Pearson's r>0.9). Floating time (sec) was defined as the minimal amount of effort required to keep the animal's head above and diving (number of incidences) was registered when the whole body of the animal was submersed and the animal's head was facing towards the bottom of the tank.
Based on the results of the Porsolt test in Example 1, IGFBP2, IGFBP3, and IGFBP5 were identified as the best binding proteins for inducing robust antidepressant-like effects without side effects. Given the structural similarities between all 7 IGFBPs, an amino acid sequence homology was performed to identify sequences that were homologues between IGFBP2, IGFBP3, and IGFBP5 and were not consistently shared with IGFBP1, IGFBP6 and IGFBP7. Based on this analysis, three peptides were identified (KHGLYNLKQCKMSLNGQ (SEQ ID NO: 1); PKKLRP (SEQ ID NO: 2); RGD). These peptides were synthesized using standard solid phase peptide chemistry and were assessed in the Porsolt Test as described above.

rats [1] = assay: Positive emotional learning: hedonic 50-kHz ultrasonic vocalizations during heterospecific play, with center crosses in the same assay; conditions: 0.01, 0.1, 1, 10, and 30 mg/kg vs. vehicle, P<0.05
Method: (§1) These experiments were conducted as described in Burgdorf et al. (Int. J. Neuropsychopharmacol., 2017, 20:476-484).

rats [2] = assay: Contextual fear extinction (model of PTSD); conditions: 1 mg/kg IV one hour before the first extinction session
Method: as §1

[3] = Table 1 raw data, one value per rat, ketamine 10 mg/kg i.v., 5 min test session

CNC1(c2ccccc2Cl)CCCCC1=O (stereo not drawn) [ket, ketamine, reference compound]
diving (number of incidences) (male SD rats; [3]): 0 (6×) and 1 | floating (floating time) (male SD rats; [3]): 30.5 s and 55 s and 79.5 s and 31.2 s and 59.3 s and 78.1 s and 39.6 s

IGFBP3: insulin-like growth factor binding protein 3 (peprotech, USA)
antidepressant-like effect in the Porsolt test as measured by floating time, compared with ketamine (male SD rats; ketamine 10 mg/kg i.v.): equivalent antidepressant-like effect as ketamine | floating (floating time) (male SD rats; Table 1 raw data, one value per rat, IGFBP 1 μg/kg i.v., 5 min test session, listed as BP3): 29.3 s and 35.8 s and 42.8 s and 23.3 s and 84.9 s and 140.5 s and 142.3 s

IGFBP5: insulin-like growth factor binding protein 5 (peprotech, USA)
antidepressant-like effect in the Porsolt test as measured by floating time, compared with ketamine (male SD rats; ketamine 10 mg/kg i.v.): equivalent antidepressant-like effect as ketamine | floating (floating time) (male SD rats; Table 1 raw data, one value per rat, IGFBP 1 μg/kg i.v., 5 min test session, listed as BP5): 14.4 sec and 104.6 sec and 55 sec and 8.4 sec and 27.7 sec (2×) and 25.7 sec

IGFBP7: insulin-like growth factor binding protein 7 (peprotech, USA)
antidepressant-like effect in the Porsolt test as measured by floating time, compared with ketamine (male SD rats; ketamine 10 mg/kg i.v.): equivalent antidepressant-like effect | floating (floating time) (male SD rats; Table 1 raw data, one value per rat, IGFBP 1 μg/kg i.v., 5 min test session, listed as BP7): 24.5 s and 123.8 s and 52.5 s and 94.4 s and 9.8 s and 30.8 s and 60.1 s

KHGLYNLKQCKMSLNGQ [made by solid phase peptide chemistry]
antidepressant-like effect in the Porsolt test (floating time), compared with IGFBP2 (male SD rats): equivalent antidepressant-like effect as IGFBP2 | floating (floating time) (male SD rats; Table 2 raw data, one value per rat, dose 54 (low dose, unit not given), listed as KH . . .): 29.2 s and 26.5 s and 25.2 s and 24.2 s and 43.3 s and 33.4 s and 53.8 s and 27.4 s | floating (floating time) (male SD rats; Table 2 raw data, one value per rat, dose 540 (high dose, unit not given), listed as KH . . .): 108.7 s and 94.8 s and 121.4 s and 149.1 s and 101.5 s and 105.8 s and 130 s and 147.9 s | antidepressant-like effect in the Porsolt test as measured by floating time, compared with IGFBP2 (male SD rats; low dose): equivalent or superior antidepressant-like effect

PKKLRP [made by solid phase peptide chemistry]
antidepressant-like effect in the Porsolt test (floating time), compared with IGFBP2 (male SD rats): equivalent antidepressant-like effect as IGFBP2 | floating (floating time) (male SD rats; Table 2 raw data, one value per rat, dose 20 (low dose, unit not given), listed as PK . . .): 16.6 s and 6.6 s and 10.2 s and 26.2 s and 18.2 s and 15.5 s and 22.4 s and 7.6 s | floating (floating time) (male SD rats; Table 2 raw data, one value per rat, dose 200 (high dose, unit not given), listed as PK . . .): 17.3 s and 4.3 s and 47.8 s and 9 s and 18.4 s and 45.6 s and 2.3 s and 7.7 s | antidepressant-like effect in the Porsolt test as measured by floating time, compared with IGFBP2 (male SD rats; high dose): equivalent or superior antidepressant-like effect | antidepressant-like effect in the Porsolt test as measured by floating time, compared with IGFBP2 (male SD rats; low dose): equivalent or superior antidepressant-like effect | center crosses (index of an anxiolytic drug effect) (rats [1]; FIG. 3B): increased | positive emotional learning (rates of hedonic ultrasonic vocalizations during heterospecific play) (rats [1]; 1 hr post dosing, FIG. 3A): increased positive emotional learning | spontaneous recovery (difference in freezing 14 days post dosing versus extinction session 6) (rats [2]; FIG. 3D): increased | contextual fear extinction across each test day (rats [2]; sessions 1-6 drug vs. vehicle, P<0.05, FIG. 3C): increased contextual fear extinction

RGD
floating (floating time) (male SD rats; Table 2 raw data, one value per rat, dose 9 (unit not given)): 115.4 s and 132.9 s and 113.1 s and 125.8 s and 108.2 s and 140.6 s and 139.7 s and 127.8 s | floating (floating time) (male SD rats; Table 2 raw data, one value per rat, dose 90 (unit not given)): 137 s and 169 s and 132.7 s and 133.6 s and 81.6 s and 143.4 s and 149.6 s and 123.7 s

B1: IGFBP1: insulin-like growth factor binding protein 1 (peprotech, USA) (protein, UniProt P08833 26-259, looked up)
Insulin-like growth …: APWQCAPCSAEKLALCPPVSASCSEVTRSAGCGCCPMCALPLGAACGVATARCARGLSCRALPGEQQPLHALTRGQGACVQESDASAPHAAEAGSPESPESTEITEEELLDNFHLMAPSEEDHSILWDAISTYDGSKALHVTNIKKWKEPCRIELYRVVESLAKAQETSGEEISKFYLPNCNKNGFYHSRQCETSMDGEAGLCWCVYPWNGKRIPGSPEIRGDPNCQIYFNVQN
floating (floating time) (male SD rats; Table 1 raw data, one value per rat, IGFBP 1 μg/kg i.v., 5 min test session, listed as BP1): 156.8 s and 143.4 s and 67.5 s and 179.1 s and 130.7 s and 96.8 s and 187.9 s

B2: IGFBP4: insulin-like growth factor binding protein 4 (peprotech, USA) (protein, UniProt P22692 22-258, looked up)
Insulin-like growth …: DEAIHCPPCSEEKLARCRPPVGCEELVREPGCGCCATCALGLGMPCGVYTPRCGSGLRCYPPRGVEKPLHTLMHGQGVCMELAEIEAIQESLQPSDKDEGDHPNNSFSPCSAHDRRCLQKHFAKIRDRSTSGGKMKVNGAPREDARPVPQGSCQSELHRALERLAASQSRTHEDLYIIPIPNCDRNGNFHPKQCHPALDGQRGKCWCVDRKTGVKLPGGLEPKGELDCHQLADSFRE
floating (floating time) (male SD rats; Table 1 raw data, one value per rat, IGFBP 1 μg/kg i.v., 5 min test session, listed as BP4): 32.4 s and 137.2 s and 175.7 s and 189.5 s and 59 s and 64.7 s and 172.9 s

B3: IGFBP2: insulin-like growth factor binding protein 2 (peprotech, USA); positive control in Example 2 (protein, UniProt P18065 36-325, looked up)
Insulin-like growth …: AEVLFRCPPCTPERLAACGPPPVAPPAAVAAVAGGARMPCAELVREPGCGCCSVCARLEGEACGVYTPRCGQGLRCYPHPGSELPLQALVMGEGTCEKRRDAEYGASPEQVADNGDDHSEGGLVENHVDSTMNMLGGGGSAGRKPLKSGMKELAVFREKVTEQHRQMGKGGKHHLGLEEPKKLRPPPARTPCQQELDQVLERISTMRLPDERGPLEHLYSLHIPNCDKHGLYNLKQCKMSLNGQRGECWCVNPNTGKLIQGAPTIRGDPECHLFYNEQQEARGVHTQRMQ
antidepressant-like effect in the Porsolt test as measured by floating time, compared with ketamine (male SD rats; ketamine 10 mg/kg i.v.): equivalent antidepressant-like effect as ketamine | floating (floating time) (male SD rats; Table 1 raw data, one value per rat, IGFBP 1 μg/kg i.v., 5 min test session, listed as BP2): 59.8 s and 45.5 s and 41.6 s and 43.5 s and 25.7 s and 68.2 s and 83.6 s | floating (floating time) (male SD rats; Table 2 raw data, one value per rat, positive control IGFBP2, dose not given, listed as BP2): 37.2 s and 67.1 s and 22 s and 35.6 s and 28.2 s and 65.8 s and 44.3 s and 79.1 s

B4: IGFBP6: insulin-like growth factor binding protein 6 (peprotech, USA) (protein, UniProt P24592 28-240, looked up)
Insulin-like growth …: RCPGCGQGVQAGCPGGCVEEEDGGSPAEGCAEAEGCLRREGQECGVYTPNCAPGLQCHPPKDDEAPLRALLLGRGRCLPARAPAVAEENPKESKPQAGTARPQDVNRRDQQRNPGTSTTPSQPNSAGVQDTEMGPCRRHLDSVLQQLQTEVYRGAQTLYVPNCDHRGFYRKRQCRSSQGQRRGPCWCVDRMGKSLPGSPDGNGSSSCPTGSSG
antidepressant-like effect in the Porsolt test as measured by floating time, compared with ketamine (male SD rats; ketamine 10 mg/kg i.v.): equivalent antidepressant-like effect | floating (floating time) (male SD rats; Table 1 raw data, one value per rat, IGFBP 1 μg/kg i.v., 5 min test session, listed as BP6): 25.6 s and 36.6 s and 10.9 s and 45 s and 27.2 s and 35.5 s and 36.3 s
